Measured values: article PMC7377239, “Cardiovascular Effects of Polychlorinated Biphenyls and Their Major Metabolites” (Environmental Health Perspectives, 2020)
Read-outs that look alike come from different tables or passages of the source.

Tested on: iCell cardiomyocytes (human iPSC-derived cardiomyocytes)
Experiment: Intracellular Ca2+ flux / beating parameters in iCell cardiomyocytes (FLIPR tetra), 90 min or 24 h
Type: cell-based
Settings: Homo sapiens, Cardiomyocyte, 0.00 µM = 100.00; for activity at 0.1 µM: 0.10 µM
Procedure, shortened: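 Gelatin-plated iCell cardiomyocytes (5,000/well) were dye-loaded for 2 h at 37 °C, then exposed for 90 min or 24 h to PCBs/metabolites (5× plates at 0.05–500 µM; 0.5% DMSO final) in triplicate. Ca2+ flux was read for 100 s at 8 Hz and 37 °C. Peak height, frequency, spacing CV and decay/rise ratio were vehicle-normalized and fitted with a four-parameter logistic model, with POD set at 1 SD of vehicle.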

[1] = 1.5 h, 90min, read-out: cm.amp.avg.90min
[2] = 1.5 h, 90min, read-out: cm.amp.cv.90min
[3] = 1.5 h, 90min, read-out: cm.bpm.90min
[4] = 1.5 h, 90min, read-out: cm.decay.rise.90min
[5] = 1.5 h, 90min, read-out: cm.spacing.cv.90min
[6] = 24 h, 24hrs, read-out: cm.amp.avg.24hrs
[7] = 24 h, 24hrs, read-out: cm.amp.cv.24hrs
[8] = 24 h, 24hrs, read-out: cm.bpm.24hrs
[9] = 24 h, 24hrs, read-out: cm.decay.rise.24hrs
[10] = 24 h, 24hrs, read-out: cm.spacing.cv.24hrs

Work on `Clc1ccc(Cl)c(-c2cc(Cl)ccc2Cl)c1` [PCB52] yielded an activity at 0.01 µM [1] of 97.9%, an activity at 0.01 µM [2] of 90.9% and an activity at 0.01 µM [3] of 102%. It also gave an activity at 0.01 µM [4] of 101%, an activity at 0.01 µM [5] of 93.9% and an activity at 0.1 µM [1] of 101%. It also gave an activity at 0.1 µM [2] of 102%, an activity at 0.1 µM [3] of 99.1% and an activity at 0.1 µM [4] of 101%. For the same molecule, the activity at 0.1 µM [5] was 98.6%, the activity at 1 µM [1] was 105% and the activity at 1 µM [2] was 111%. It also gave an activity at 1 µM [3] of 97.8%, an activity at 1 µM [4] of 102% and an activity at 1 µM [5] of 91%. It also gave an activity at 10 µM [1] of 96.6%, an activity at 10 µM [2] of 99.4% and an activity at 10 µM [3] of 99.1%. It also gave an activity at 10 µM [4] of 111%, an activity at 10 µM [5] of 102% and an activity at 100 µM [1] of 44.4%. It also gave an activity at 100 µM [2] of 73%, an activity at 100 µM [3] of 0% and an activity at 100 µM [4] of 42.8%. It also gave an activity at 100 µM [5] of 71.6%, an activity at 0.01 µM [6] of 86.6% and an activity at 0.01 µM [7] of 98.1%. The activity at 0.01 µM [8] was 96.4%, the activity at 0.01 µM [9] was 111% and the activity at 0.01 µM [10] was 109%. For the same molecule, the activity at 0.1 µM [6] was 84.6%, the activity at 0.1 µM [7] was 95.6% and the activity at 0.1 µM [8] was 90.7%. The activity at 0.1 µM [9] was 108%, the activity at 0.1 µM [10] was 89.3% and the activity at 1 µM [6] was 51.8%. The activity at 1 µM [7] was 42.2%, the activity at 1 µM [8] was 46.8% and the activity at 1 µM [9] was 55.5%. The activity at 1 µM [10] was 44.5%, the activity at 10 µM [6] was 86.5% and the activity at 10 µM [7] was 119%. The activity at 10 µM [8] was 93.6%, the activity at 10 µM [9] was 127% and the activity at 10 µM [10] was 98.5%. The activity at 100 µM [6] was 0%, the activity at 100 µM [7] was 0% and the activity at 100 µM [8] was 0%. For the same molecule, the activity at 100 µM [9] was 0% and the activity at 100 µM [10] was 0%.
